Test results published in ChEMBL document CHEMBL1201862, “PubChem BioAssay data set” (2004).
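Briefly, cells in 96-well plates were exposed to five compound concentrations for 48 h, and endpoints were estimated by linear interpolation. Here, GI50 denotes the concentration required for 50% inhibition of growth.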 Activity calls are given as the source filed them. Rule as the data show it: active = GI50 up to about 1.1 µM and inactive = higher.

Columns and labels:
Assay in all cases: NCI-60 cell line screen, 48 h
[1] = tested on: MDA-MB-231
[2] = tested on: SK-MEL-5
[3] = tested on: KM12
[4] = tested on: DU-145
[5] = tested on: OVCAR-3
[6] = tested on: SK-OV-3
[7] = tested on: T47D
[8] = tested on: TK-10
[9] = tested on: NCI-H460
[10] = tested on: HT-29
[11] = tested on: NCI-H23
[12] = tested on: RXF 393
[13] = tested on: Malme-3M
[14] = tested on: UACC-257
[15] = tested on: UO-31
[16] = tested on: 786-0
[17] = tested on: M14
[18] = tested on: OVCAR-5
[19] = tested on: SK-MEL-28
[20] = tested on: SNB-19
[21] = tested on: BT-549
[22] = tested on: SNB-75
[23] = tested on: HCT-15
[24] = tested on: RPMI-8226
[25] = tested on: NCI-H522
[26] = tested on: HOP-92
[27] = tested on: SF-295
[28] = tested on: K562
[29] = tested on: A549
[30] = tested on: NCI/ADR-RES
[31] = tested on: LOX IMVI
[32] = tested on: HL-60
[33] = tested on: SW-620
[34] = tested on: Hs-578T
[35] = tested on: UACC-62
[36] = tested on: HCT-116
[37] = tested on: ACHN
[38] = tested on: EKVX
[39] = tested on: SK-MEL-2
[40] = tested on: IGROV-1
[41] = tested on: SF-268
[42] = tested on: SR
[43] = tested on: OVCAR-4
[44] = tested on: MDA-N
[45] = tested on: CCRF-CEM
[46] = tested on: NCI-H226
[47] = tested on: A498
[48] = tested on: HOP-62
[49] = tested on: MDA-MB-435
[50] = tested on: OVCAR-8
[51] = tested on: SN12C
[52] = tested on: MCF7
[53] = tested on: SF-539
[54] = tested on: MOLT-4
[55] = tested on: COLO 205
[56] = tested on: CAKI-1
[57] = tested on: PC-3
[58] = tested on: U-251
[59] = tested on: HCC 2998

C#CCn1c(=O)c(Cl)cn(/C(=C/C(=O)OCC)C(=O)OCC)c1=O
GI50 [1]: 18.2 µM (inactive) | GI50 [2]: 16.9 µM (inactive) | GI50 [3]: 31.9 µM (inactive) | GI50 [4]: 18.6 µM (inactive) | GI50 [5]: 3.48 µM (inactive) | GI50 [6]: 31.6 µM (inactive) | GI50 [7]: 2.34 µM (inactive) | GI50 [8]: 2.43 µM (inactive) | GI50 [9]: 32.4 µM (inactive) | GI50 [10]: 18.4 µM (inactive) | GI50 [11]: 18.5 µM (inactive) | GI50 [12]: 2.12 µM (inactive) | GI50 [13]: 3.86 µM (inactive) | GI50 [14]: 5.07 µM (inactive) | GI50 [15]: 3.4 µM (inactive) | GI50 [16]: 1.98 µM (inactive) | GI50 [17]: 6.98 µM (inactive) | GI50 [18]: 16.9 µM (inactive) | GI50 [19]: 19 µM (inactive) | GI50 [20]: 39.8 µM (inactive) | GI50 [21]: 18.5 µM (inactive) | GI50 [22]: 14.7 µM (inactive) | GI50 [23]: 6.79 µM | GI50 [24]: 1.91 µM (inactive) | GI50 [25]: 3.38 µM (inactive) | GI50 [26]: 9.77 µM (inactive) | GI50 [27]: > 47.5 µM (inactive) | GI50 [28]: 1.7 µM (inactive) | GI50 [29]: 25 µM (inactive) | GI50 [30]: 26 µM (inactive) | GI50 [31]: 8.32 µM (inactive) | GI50 [32]: 3.05 µM (inactive) | GI50 [33]: 2.22 µM (inactive) | GI50 [34]: 42.9 µM (inactive) | GI50 [35]: 15.8 µM (inactive) | GI50 [36]: 4.69 µM (inactive) | GI50 [37]: 2.03 µM (inactive) | GI50 [38]: 16.1 µM (inactive) | GI50 [39]: 17.4 µM (inactive) | GI50 [40]: 17.3 µM (inactive) | GI50 [41]: 27.9 µM (inactive) | GI50 [42]: 2.32 µM (inactive) | GI50 [43]: 17.2 µM (inactive) | GI50 [44]: 15.3 µM (inactive) | GI50 [45]: 5.2 µM (inactive) | GI50 [46]: > 43.1 µM (inactive) | GI50 [47]: 22.9 µM (inactive) | GI50 [48]: 20 µM (inactive) | GI50 [49]: 18 µM (inactive) | GI50 [50]: 5.48 µM (inactive) | GI50 [51]: 22.4 µM (inactive) | GI50 [52]: 8.45 µM (inactive) | GI50 [53]: 6.11 µM (inactive) | GI50 [54]: 2.28 µM (inactive) | GI50 [55]: 1.04 µM (active) | GI50 [56]: 2.99 µM (inactive) | GI50 [57]: 16.6 µM (inactive) | GI50 [58]: 17.7 µM (inactive)

CC(C(=O)NCNC(=O)c1ccccc1)C(=O)NCc1ccccc1 (configuration not stated)
GI50 [1]: > 100 µM (inactive) | GI50 [2]: > 100 µM (inactive) | GI50 [3]: > 100 µM (inactive) | GI50 [4]: > 100 µM (inactive) | GI50 [6]: > 100 µM (inactive) | GI50 [7]: > 100 µM (inactive) | GI50 [8]: > 100 µM (inactive) | GI50 [9]: > 100 µM (inactive) | GI50 [10]: > 100 µM (inactive) | GI50 [11]: > 100 µM (inactive) | GI50 [12]: > 100 µM (inactive) | GI50 [13]: > 100 µM (inactive) | GI50 [14]: > 100 µM (inactive) | GI50 [15]: > 100 µM (inactive) | GI50 [16]: > 100 µM (inactive) | GI50 [17]: > 100 µM (inactive) | GI50 [18]: > 100 µM (inactive) | GI50 [20]: > 100 µM (inactive) | GI50 [21]: > 100 µM (inactive) | GI50 [22]: > 100 µM (inactive) | GI50 [23]: > 100 µM | GI50 [24]: > 100 µM (inactive) | GI50 [25]: 99.3 µM (inactive) | GI50 [26]: > 100 µM (inactive) | GI50 [27]: > 100 µM (inactive) | GI50 [29]: > 100 µM (inactive) | GI50 [30]: > 100 µM (inactive) | GI50 [32]: > 100 µM (inactive) | GI50 [33]: > 100 µM (inactive) | GI50 [34]: > 100 µM (inactive) | GI50 [35]: > 100 µM (inactive) | GI50 [36]: > 100 µM (inactive) | GI50 [37]: > 100 µM (inactive) | GI50 [38]: > 100 µM (inactive) | GI50 [39]: > 100 µM (inactive) | GI50 [40]: > 100 µM (inactive) | GI50 [41]: > 100 µM (inactive) | GI50 [42]: > 100 µM (inactive) | GI50 [44]: > 100 µM (inactive) | GI50 [45]: > 100 µM (inactive) | GI50 [46]: > 100 µM (inactive) | GI50 [49]: > 100 µM (inactive) | GI50 [50]: > 100 µM (inactive) | GI50 [51]: > 100 µM (inactive) | GI50 [52]: > 100 µM (inactive) | GI50 [53]: > 100 µM (inactive) | GI50 [54]: > 100 µM (inactive) | GI50 [55]: > 100 µM (inactive) | GI50 [56]: > 100 µM (inactive) | GI50 [57]: > 100 µM (inactive) | GI50 [58]: > 100 µM (inactive)

O=c1c(C(c2ccc3c(c2)Cc2ccccc2-3)c2c(O)oc3ccccc3c2=O)c(O)oc2ccccc12
GI50 [1]: 28.2 µM (inactive) | GI50 [2]: 24.5 µM (inactive) | GI50 [3]: 22.3 µM (inactive) | GI50 [4]: 33.6 µM (inactive) | GI50 [5]: 31 µM (inactive) | GI50 [6]: 31.3 µM (inactive) | GI50 [7]: 41.5 µM (inactive) | GI50 [8]: 56.5 µM (inactive) | GI50 [9]: 25.9 µM (inactive) | GI50 [10]: > 100 µM (inactive) | GI50 [11]: 29.4 µM (inactive) | GI50 [12]: 18.2 µM (inactive) | GI50 [13]: 26.2 µM (inactive) | GI50 [14]: 34.6 µM (inactive) | GI50 [15]: 16.7 µM (inactive) | GI50 [16]: 25.9 µM (inactive) | GI50 [17]: 20.5 µM (inactive) | GI50 [18]: 23.7 µM (inactive) | GI50 [19]: 22.5 µM (inactive) | GI50 [20]: 47.1 µM (inactive) | GI50 [21]: 27.4 µM (inactive) | GI50 [22]: 20.7 µM (inactive) | GI50 [23]: 22.2 µM | GI50 [59]: 18.7 µM (inactive) | GI50 [24]: 44.9 µM (inactive) | GI50 [25]: 21.9 µM (inactive) | GI50 [26]: 19.1 µM (inactive) | GI50 [27]: 25.2 µM (inactive) | GI50 [28]: 10 µM (inactive) | GI50 [29]: 19.5 µM (inactive) | GI50 [30]: > 100 µM (inactive) | GI50 [31]: 26.3 µM (inactive) | GI50 [32]: 29.2 µM (inactive) | GI50 [33]: 29.8 µM (inactive) | GI50 [34]: 25.6 µM (inactive) | GI50 [35]: 22.3 µM (inactive) | GI50 [36]: 35.6 µM (inactive) | GI50 [37]: 23.9 µM (inactive) | GI50 [38]: 48.9 µM (inactive) | GI50 [39]: 31.9 µM (inactive) | GI50 [40]: 39.3 µM (inactive) | GI50 [41]: 23.9 µM (inactive) | GI50 [43]: 31.8 µM (inactive) | GI50 [44]: 19.9 µM (inactive) | GI50 [45]: 40.4 µM (inactive) | GI50 [46]: > 100 µM (inactive) | GI50 [47]: 38.5 µM (inactive) | GI50 [48]: 32.5 µM (inactive) | GI50 [49]: 31 µM (inactive) | GI50 [50]: > 100 µM (inactive) | GI50 [51]: 20.4 µM (inactive) | GI50 [52]: 22.9 µM (inactive) | GI50 [53]: 21.4 µM (inactive) | GI50 [54]: 40.6 µM (inactive) | GI50 [55]: 20.4 µM (inactive) | GI50 [56]: 20.3 µM (inactive) | GI50 [57]: 37.8 µM (inactive) | GI50 [58]: 23.9 µM (inactive)
